Results on 24 compounds are retold here after patent US12421249B2, “Inhibitors of APOL1 and methods of using same” (Vertex Pharmaceuticals Incorporated, priority 2020, dated 2025).

Each structure is given as a SMILES string.

Assay type in all cases: cell-based
The target of assay [1] is T1, APOL1 G1 (Homo sapiens, UniProt O14791, I384M/S342G).
T1 sequence (O14791 28-398 S342G/I384M): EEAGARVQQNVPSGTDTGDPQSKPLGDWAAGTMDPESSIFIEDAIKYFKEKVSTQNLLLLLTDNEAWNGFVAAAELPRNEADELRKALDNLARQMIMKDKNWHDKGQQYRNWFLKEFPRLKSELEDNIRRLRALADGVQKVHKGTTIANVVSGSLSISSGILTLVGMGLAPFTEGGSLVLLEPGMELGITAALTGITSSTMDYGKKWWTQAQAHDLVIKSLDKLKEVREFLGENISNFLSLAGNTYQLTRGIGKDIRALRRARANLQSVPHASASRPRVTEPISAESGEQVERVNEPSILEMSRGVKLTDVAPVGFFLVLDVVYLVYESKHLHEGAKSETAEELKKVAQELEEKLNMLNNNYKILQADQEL
The assay is described as follows: MultiTox-Fluor Multiplex Cytotoxicity Assay in tet-inducible APOL1 G1 T-REx-HEK293 cells (clone G1 DC3.25). On the set-up: expressed in transfected cells; host or cells: T-REx HEK293, pAAVS1-Puro-APOL1 G1, clone G1 DC3.25. The settings on record: Multi-Tox Assay, APOL1 variant cell line not given; for Emax: read-out: Multi-Tox Assay Max Activity (%); for IC50: IP50 = IC50 for cell proliferation. As for the experimental part: The MultiTox-Fluor Multiplex Cytotoxicity Assay is a single-reagent-addition, homogeneous, fluorescence assay that measures the number of live and dead cells simultaneously in culture wells. The assay measures cell viability and cytotoxicity by detecting two distinct protease activities. The live-cell protease activity is restricted to intact viable cells and is measured using a fluorogenic, cell-permeant peptide glycyl-phenylalanylamino fluorocoumarin (GF-AFC) substrate. The substrate enters intact cells, where it is cleaved to generate a fluorescent signal proportional to the number of living cells. […] A second, cell-impermeant, fluorogenic peptide substrate (bis-AAF-R110 Substrate) is used to measure dead-cell protease that has been released from cells that have lost membrane integrity. A ratio of dead to live cells is used to normalize data.
Briefly, the tet-inducible transgenic APOL1 T-REx-HEK293 cell lines were incubated with 50 ng/mL tet to induce APOL1 in the presence of 3-(2-(4-fluorophenyl)-1H-indol-3-yl)-N-((3S,4R)-4-hydroxy-2-oxopyrrolidin-3-yl)propenamide at […], 0.0045, 0.0015, 0.0005 μM in duplicate for 24 hours in a humidified 37° C. incubator. The MultiTox reagent was added to each well and placed back in the incubator for an additional 30 minutes. The plate was read on the EnVision plate reader. A ratio of dead to live cells was used to normalize, and data was imported, analyzed and fit using Genedata Screener (Basel, Switzerland) software. Data was normalized using percent of control, no tet (100% viability), and 50 ng/mL tet treated (0% viability), and fit using Smart Fit. The reagents, methods, and complete protocol for the MultiTox assay are described below.
Human embryonic kidney (HEK293) cell lines containing a tet-inducible expression system (T-REx™; Invitrogen, Carlsbad, CA) and Adeno-associated virus site 1 pAAVS1-Puro-APOL1 G0 or pAAVS1-Puro-APOL1 G1 or pAAVS1-Puro-APOL1 G2 Clones G0 DC2.13, G1 DC3.25, and G2 DC4.44 were grown in a T-225 flask at ˜90% confluency in cell growth media (DMEM, 10% Tet-free FBS, 2 mM L-glutamine, 100 Units/mL penicillin-streptomycin, 5 μg/mL blasticidin S HCl, 1 μg/mL puromycin dihydrochloride). Cells were washed with DPBS and then trypsinized to dissociate from the flask. Media was used to quench the trypsin, cells were then pelleted at 200 g and resuspended in fresh cell assay media (DMEM, 2% Tet-free FBS, 2 mM L-glutamine, 100 Units/mL penicillin-streptomycin). Cells were counted and diluted to 1.17×10^6 cells/mL. 20 μL of cells (23,400/well) were dispensed to every well of a 384-well Poly-D-Lysine coated plate using the Multidrop dispenser. The plates were then incubated at room temperature for one hour.
Tetracycline is needed to induce APOL1 expression. 1 mg/mL tet stock in water was diluted to 250 ng/mL (5×) in cell assay media. 60 μL of cell assay media (no tet control) was dispensed in columns 1 and 24, and 60 μL of 5× tet was dispensed in 384-PP-round bottom plate in columns 2 to 23 with the Multidrop dispenser.
Assay ready plates from the Global Compound Archive were ordered using template 384_APOL1Cell_DR10n2_50 μM_v3. Compounds were dispensed at 200 nL in DMSO. The final top concentration was 10 μM with a 10 point 3-fold dilution in duplicate in the MultiTox assay.
20 μL were transferred from the 5× tet plate to the ARP and mixed, then 5 μL of 5× tet and the compounds were transferred to the cell plate and mixed using the Bravo. The cell plate was placed in the humidified 37° C. 5% CO2 incubator for 24 hours.
The MultiTox-Fluor Multiplex Cytotoxicity Assay was performed in accordance with the manufacturer's protocol. After cells were incubated with tet and compound for 24 hours, 25 μL of 1× MultiTox reagent was added to each well using the Multidrop dispenser; the plates were placed on a plate shaker (600 rpm) for 2 minutes, then centrifuged briefly and placed back in the 37° C. incubator for 30 minutes. […]

The target of assay [2] is T2, APOL1 (Homo sapiens, UniProt O14791).
T2 sequence (O14791 1-398 S342G/I384M): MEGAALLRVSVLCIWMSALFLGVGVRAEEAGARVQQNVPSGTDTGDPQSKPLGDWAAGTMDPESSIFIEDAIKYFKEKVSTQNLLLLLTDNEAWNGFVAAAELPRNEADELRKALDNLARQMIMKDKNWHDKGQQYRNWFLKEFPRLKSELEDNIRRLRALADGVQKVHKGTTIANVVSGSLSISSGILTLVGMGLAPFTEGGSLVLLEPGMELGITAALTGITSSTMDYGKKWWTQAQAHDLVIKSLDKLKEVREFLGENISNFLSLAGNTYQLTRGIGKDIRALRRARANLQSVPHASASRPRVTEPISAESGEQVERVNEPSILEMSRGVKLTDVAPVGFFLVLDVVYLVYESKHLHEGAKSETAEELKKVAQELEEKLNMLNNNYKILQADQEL
Put plainly: Multi-Tox Assay (MultiTox-Fluor Multiplex Cytotoxicity Assay in tet-inducible APOL1 T-REx-HEK293 cells; Table 46 does not say which APOL1 variant G0/G1/G2). The settings on record: IP50 = IC50 for cell proliferation, APOL1 variant not given.

Assay [3] deals with T1, APOL1 G1. Put plainly: Trypanosoma brucei brucei Lysis Assay Using APOL1 Recombinant Protein (AlamarBlue viability readout). The settings on record: Trypanosome Assay; for IC50: IP50 = IC50 for cell proliferation, read-out: Trypanosome Assay IP50; for Emax: read-out: Trypanosome Assay Max Activity (%). Put shortly:
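Percent viability comes from AlamarBlue (resazurin→resorufin) fluorescence interpolated on a standard curve of known parasite numbers, with no-APOL1 wells as 100%. Parasites (Lister 427 bloodstream form, 120,000/well, serum-free assay medium) meet 0.05 μg/mL APOL1 (~EC90). Compounds span a 10-point series, 0.1% DMSO final.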
On the technique in general: Resazurin is reduced to fluorescent resorufin, in cell work by metabolically active cells.

In general, IC90 refers to the concentration at which the effect reaches the 90% level. Read a low IC90 as greater potency. Take `COCC1([C@@H]2C[C@]3(C[C@H](C)N2)OCCc2cc(Cl)sc23)CC1` (racemic) [Compound 376]: in assay [1], the 90% effect concentration (IC90) is 50 to 500 nM, the Emax amounted to 99% and the IC50 was in the range of 50 to 500 nM.
In the case of `C[C@H]1C[C@@]2(C[C@@H](C3(C#N)CC3)N1)OCCc1cc(Cl)sc12` (racemic) [Compound 377], in assay [1], the IC90 is more than 500 nM, the Emax worked out at 98% and the IC50 lay within 50 to 500 nM.
The matching figures for `C[C@H]1C[C@@]2(C[C@@H](C3(N(C)C)CC3)N1)OCCc1cc(Cl)sc12` (racemic) [Compound 378]: 50 to 500 nM, 99% and less than 50 nM.
As to `CCOC(=O)C1CC1[C@@H]1C[C@]2(C[C@H](C)N1)OCCc1cc(Cl)sc12` (stereo in doubt) [Compound 374], in assay [1], the IC90 lay within 50 to 500 nM, the Emax was determined as 99% and the IC50 is less than 50 nM.
In assay [1], `CCOC(=O)C1CC1[C@@H]1C[C@]2(C[C@H](C)N1)OCCc1cc(Cl)sc12` (stereo in doubt) [Compound 375] registered an IC90 of 50 to 500 nM and an IC50 of less than 50 nM.
As to `COCC1CC2(CC(c3cn(C)nn3)N1)OCCc1cc(Cl)sc12` (stereo not shown) [Compound 190], the IC50 in assay [2] lay within 50 to 500 nM. Further, in assay [3], the IC50 is more than 500 nM and the Emax was 92.5%.
In the case of `CC(C)C1CC2(CC(c3cn(C)nn3)N1)OCCc1cc(C(F)(F)F)sc12` (stereo not shown) [Compound 191], in assay [2], the IC50 lay in the range of 50 to 500 nM. Further, in assay [3], the IC50 lay in the range of 50 to 500 nM and the Emax was determined as 108%.
In turn, `Cn1cc(C2CC3(CC(C4CCC4)N2)OCCc2cc(C(F)(F)F)sc23)nn1` (stereo not shown) [Compound 192] showed an IC50 in assay [2] of 50 to 500 nM. For the same compound, in assay [3], the IC50 fell in the range of 50 to 500 nM and the Emax was found to be 100%.
On to `COCC1CC2(CC(c3cn(C)nn3)N1)OCCc1cc(C(F)(F)F)sc12` (stereo not shown) [Compound 193], for which the IC50 in assay [2] and in assay [3] was 50 to 500 nM each time. For the same compound, the Emax in assay [3] is 100%.
`C[C@H]1CC2(C[C@H](C)N1)OCCc1sc(C(F)(F)F)cc12` (stereo partly shown) [Compound 195] displayed an IC50 in assay [2] of more than 500 nM. In assay [3], the IC50 was more than 500 nM and the Emax amounted to 50.7%.
`COC(=O)[C@@H]1C[C@]2(C[C@H](C)N1)OCCc1cc(Cl)sc12` [Compound 209, methyl (2′S,6′S,7S)-2-chloro-6′-methyl-spiro[4,5-dihydrothieno[2,3-c]pyran-7,4′-piperidine]-2′-carboxylate]: the IC50 in assay [2] was more than 500 nM. Also, in assay [3], the IC50 lay in the range of 50 to 500 nM and the Emax came out at 100%.
The matching figures for `C[C@H]1C[C@@]2(C[C@@H](CC3CCOCC3)N1)OCCc1cc(Cl)sc12` [Compound 219, (2S,6R)-2-chloro-2′-methyl-6′-(tetrahydropyran-4-ylmethyl)spiro[4,5-dihydrothieno[2,3-c]pyran-7,4′-piperidine]]: more than 500 nM, more than 500 nM and 71%.
The matching figures for `C[C@H]1C[C@@]2(C[C@@H](C3CC3)N1)OCC(O)c1cc(Cl)sc12` (stereo partly drawn) [Compound 220, (2S,6S)-2-chloro-2′-cyclopropyl-6′-methyl-spiro[4,5-dihydrothieno[2,3-c]pyran-7,4′-piperidine]-4-ol]: less than 50 nM, less than 50 nM and 110%.
As to `C[C@H]1C[C@@]2(C[C@@H](c3cn(CCO)nn3)N1)OCC(F)(F)c1cc(Cl)sc12` [Compound 361], in assay [1], the Emax stood at 98% and the IC50 is less than 50 nM.
Turning to `COc1ccc(Cn2cc([C@@H]3C[C@]4(C[C@H](C)N3)OCC(F)(F)c3cc(Cl)sc34)nn2)cc1F` [Compound 362], in assay [1], the Emax came out at 98%.
`C[C@H]1C[C@@]2(C[C@@H](c3cn(C[C@@H](O)CO)nn3)N1)OCC(F)(F)c1cc(Cl)sc12` [Compound 363]: in assay [1], the Emax is 99% and the IC50 was less than 50 nM.
On to `C[C@H]1C[C@@]2(C[C@@H](c3cn(CC(C)(C)O)nn3)N1)OCC(F)(F)c1cc(Cl)sc12` [Compound 364], for which, in assay [1], the Emax was 95%.
Turning to `C[C@H]1C[C@@]2(C[C@@H](c3cn(Cc4cncs4)nn3)N1)OCC(F)(F)c1cc(Cl)sc12` [Compound 365], in assay [1], the Emax stood at 99% and the IC50 is less than 50 nM.
Regarding `C[C@H]1C[C@@]2(C[C@@H](c3cn(Cc4ccc5nc(O)[nH]c5c4)nn3)N1)OCC(F)(F)c1cc(Cl)sc12` [Compound 366], in assay [1], the Emax amounted to 95%.
For the compound `C[C@H]1C[C@@]2(C[C@@H](c3cn(CCC(C)(C)O)nn3)N1)OCC(F)(F)c1cc(Cl)sc12` [Compound 367], in assay [1], the Emax stood at 99% and the IC50 is less than 50 nM.
In the case of `C[C@H]1C[C@@]2(C[C@@H](c3cn(CC4CCC(=O)NC4)nn3)N1)OCC(F)(F)c1cc(Cl)sc12` (stereo partly shown) [Compound 368], the Emax in assay [1] came to 96%.
The same measure, in the same setting: in the case of `C[C@H]1C[C@@]2(C[C@@H](c3cn(CC#N)nn3)N1)OCC(F)(F)c1cc(Cl)sc12` [Compound 369] it was 98%; in that of `CC(CO)Cn1cc([C@@H]2C[C@]3(C[C@H](C)N2)OCC(F)(F)c2cc(Cl)sc23)nn1` (stereo partly shown) [Compound 370], 99%.
Regarding `C[C@H](CO)Cn1cc([C@@H]2C[C@]3(C[C@H](C)N2)OCC(F)(F)c2cc(Cl)sc23)nn1` [Compound 371], in assay [1], the IC90 was in the range of 50 to 500 nM, the Emax amounted to 99% and the IC50 was less than 50 nM.
